Assay results taken from patent US20240310368A1, “DETECTION KIT FOR CATECHOLAMINES AND METABOLITES THEREOF IN PLASMA/URINE AND DETECTION METHOD THEREOF” (Calibra Scientific, Inc., priority 2023, published 2024).

Columns and labels:
[1] = Acceleration test of plasma samples with stabilizers (30° C. for 1.5 days, against control plasma stored at −95° C. to −65° C.), LC-MS/MS Area/IS Area
Protocol: Samples were collected in EDTA-anticoagulant blood collection tubes and then rapidly subjected to […] centrifugation at 2-8° C. to separate plasma. 0.95 mL of the plasma was transferred into centrifuge tubes. After 50 μL of the stabilizer was added for uniform mixing, the plasma samples were stored by refrigeration or freezing.
• (1) 500 μL of plasma/urine samples to be tested were taken, and 50 μL of the internal standard solution and 500 μL of the buffer solution were sequentially added for vertex mixing to obtain diluted samples. • (2) The magnetic medium composite material suspension was subjected to full vortex treatment to reach a suspension state, and then subsequent operation was performed. • (3) Different reagents were added into wells of a preprocessing plate according to the follow operation: adding 200 μL of the magnetic medium composite material suspension in column 1, adding 500 μL of the balance solution in column 2, adding 850 μL of the diluted samples in column 3, adding 500 μL of the balance solution in column 4, adding 200 μL of a rinsing solution in column 5, and adding 100 μL of the elution solution in column 6. • (4) An extraction operation procedure was carried out, as shown in Table 5.
Each group of the plasma samples were stored at 30° C. for 1.5 days, and plasma without addition of any compounds stored at −95° C. to −65° C. was used as a control. […] The stabilizing effect of the single-component stabilizers on the plasma samples was investigated.
The stabilizers were mixed with plasma (the volume ratio of the stabilizers to plasma samples was 1:19), and high concentration plasma samples and low concentration plasma samples were prepared by the method provided in Example 1.
With plasma stored at −95° C. to −65° C. as a control, the above plasma samples were separately stored at 30° C. for 1.5 days to investigate the stability. […]

[2] = pH adjustment ability of urine diluents to standard products and urine samples (pH test papers); assay type: physicochemical, human; conditions: 20 μL urine + 480 μL diluent + 50 μL internal standard solution + 500 μL buffer solution
Protocol: In the present example, standard products of catecholamines in urine and urine samples from different sources (Sample 1 to Sample 6 are urine samples with different pH values) were selected to carry out an experiment. The urine samples were collected within 24 h by the method provided in Example 1, 20 μL of the urine samples were taken, 480 μL of urine diluents shown in Table 30 were added, respectively, then vortex mixing was performed, and 50 μL of an internal standard solution and 500 μL of a buffer solution were sequentially added to obtain urine samples to be tested. Then, pH test papers were used to detect whether the urine samples to be tested were neutral. The pH adjustment ability of different urine diluents to standard products and samples was investigated.
However, some samples are still acidic or alkaline. Thus, ammonium acetate was added on the basis of the formic acid, and different proportions of the formic acid and the ammonium acetate were investigated.

Compound: O=CO [formic acid]
- Ratio (Area/IS Area) E ([1]; plasma at a high concentration level, plasma containing 0.5% of the acid, control plasma 0.624): 0.295
- Ratio (Area/IS Area) NE ([1]; plasma at a high concentration level, plasma containing 0.5% of the acid, control plasma 1.522): 0
- Ratio (Area/IS Area) DA ([1]; plasma at a high concentration level, plasma containing 0.5% of the acid, control plasma 2.27): 0
- Ratio (Area/IS Area) E ([1]; plasma at a high concentration level, plasma containing 2.0% of the acid, control plasma 0.624): 0
- Ratio (Area/IS Area) NE ([1]; plasma at a high concentration level, plasma containing 2.0% of the acid, control plasma 1.522): 0
- Ratio (Area/IS Area) DA ([1]; plasma at a high concentration level, plasma containing 2.0% of the acid, control plasma 2.27): 0
- Ratio (Area/IS Area) E ([1]; plasma at a low concentration level, plasma containing 0.5% of the acid, control plasma 0.079): 0
- Ratio (Area/IS Area) NE ([1]; plasma at a low concentration level, plasma containing 0.5% of the acid, control plasma 0.219): 0
- Ratio (Area/IS Area) DA ([1]; plasma at a low concentration level, plasma containing 0.5% of the acid, control plasma 0.233): 0
- Ratio (Area/IS Area) E ([1]; plasma at a low concentration level, plasma containing 2.0% of the acid, control plasma 0.079): 0
- Ratio (Area/IS Area) NE ([1]; plasma at a low concentration level, plasma containing 2.0% of the acid, control plasma 0.219): 0
- Ratio (Area/IS Area) DA ([1]; plasma at a low concentration level, plasma containing 2.0% of the acid, control plasma 0.233): 0
- stabilizing effect on catecholamines in plasma ([1]; single components as stabilizers): no obvious stabilizing effect
- pH adjustment ability of urine diluent to standard products and samples [2]: uniformly adjust most of samples to neutral
